The results in this text go back to PubChem BioAssay (NCI).

SMILES strings stand for the structures.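 Following 48 hours of exposure in 96-well plates, responses at five concentrations were used to interpolate endpoints linearly. Here, GI50 denotes the concentration required for 50% inhibition of growth. At the TGI there is no net growth.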

Among the test systems are A549 NSCLC; MOLT-4 leukemia; M14 melanoma; TK-10 renal; SNB-19 CNS; U251 CNS; UACC-62 melanoma; COLO 205 colon; OVCAR-8 ovarian; MDA-MB-231 breast.
Common to all, as to experiment: NCI-60 cell line screen, 48 h

For `CN1CCC(n2[nH]c(-c3ccccc3)c(Cc3ccccc3)c2=O)CC1`, the TGI was greater than 100 µM in the assay on A549 NSCLC; 89.7 µM with MOLT-4 leukemia; greater than 100 µM in the assay with M14 melanoma; greater than 100 µM in the assay with TK-10 renal; greater than 100 µM in the assay with SNB-19 CNS; greater than 100 µM in the assay with U251 CNS. Also, the TGI with UACC-62 melanoma, with COLO 205 colon, in the assay on OVCAR-8 ovarian and with MDA-MB-231 breast was greater than 100 µM throughout.
Consider `COc1ccc2c(c1)[C@@]1(C)CCC3c4ccc(O)cc4CCC3C1C2` (stereo partly drawn), for which the GI50 with A549 NSCLC was 12.6 µM; in the assay on MOLT-4 leukemia, 17.8 µM; with M14 melanoma, 18.9 µM; with TK-10 renal it was 14 µM; with SNB-19 CNS, 16.2 µM; in the assay with U251 CNS, 15.6 µM. For the same compound, the GI50 in the assay on UACC-62 melanoma was 17.6 µM; in the assay with COLO 205 colon, 14.7 µM; in the assay on OVCAR-8 ovarian, 17.1 µM; with MDA-MB-231 breast it was 13.8 µM. The TGI in the assay on A549 NSCLC is 32.2 µM; with MOLT-4 leukemia, 64.2 µM; in the assay on M14 melanoma it was 33.5 µM; in the assay with TK-10 renal, 29 µM; with SNB-19 CNS, 30.7 µM; in the assay with U251 CNS, 29.9 µM. Moreover, the TGI in the assay on UACC-62 melanoma amounted to 32.9 µM; in the assay on COLO 205 colon, 31 µM; in the assay on OVCAR-8 ovarian, 38.8 µM; with MDA-MB-231 breast, 27.8 µM.
Consider `CCN1CCC(CC(=O)Nc2n[nH]c3nc(-c4cccs4)c(Br)cc23)CC1`, for which the GI50 with A549 NSCLC is 8.82 µM; in the assay with MOLT-4 leukemia, 9.07 µM; in the assay with M14 melanoma it was 6.88 µM; with TK-10 renal, 5.81 µM; in the assay on SNB-19 CNS, 17.4 µM; in the assay on U251 CNS it was 6.78 µM. Moreover, the GI50 is 5.26 µM in the assay with UACC-62 melanoma, 3.91 µM with COLO 205 colon, 11.6 µM in the assay with OVCAR-8 ovarian and 14.7 µM in the assay on MDA-MB-231 breast. Moreover, the TGI in the assay with A549 NSCLC is greater than 25 µM; in the assay on MOLT-4 leukemia it was 24.5 µM; in the assay with M14 melanoma it was 14.6 µM; in the assay on TK-10 renal, greater than 21.4 µM; in the assay with SNB-19 CNS, greater than 25 µM; with U251 CNS it was 19.4 µM. Also, the TGI with UACC-62 melanoma was 11 µM; with COLO 205 colon, 8.16 µM; in the assay on OVCAR-8 ovarian, greater than 25 µM; with MDA-MB-231 breast, greater than 25 µM.
`OCc1ccc(Oc2c3ccccc3nc3occc23)cc1`: the GI50 is 36.5 µM in the assay on A549 NSCLC; 21 µM with MOLT-4 leukemia; 23.8 µM in the assay on M14 melanoma; 18.1 µM with TK-10 renal; 39.8 µM in the assay on SNB-19 CNS; 27 µM with U251 CNS. Moreover, the GI50 was 20 µM in the assay on UACC-62 melanoma, 26.1 µM with COLO 205 colon, 28.3 µM with OVCAR-8 ovarian and 39.4 µM in the assay with MDA-MB-231 breast. The TGI was greater than 100 µM in the assay with A549 NSCLC; 47.2 µM in the assay on MOLT-4 leukemia; 57.6 µM in the assay on M14 melanoma; 46.8 µM in the assay with TK-10 renal; greater than 100 µM with SNB-19 CNS; 56 µM in the assay with U251 CNS. Also, the TGI in the assay on UACC-62 melanoma was 47.3 µM; with COLO 205 colon it was 54.8 µM; in the assay with OVCAR-8 ovarian, greater than 100 µM; with MDA-MB-231 breast, greater than 100 µM.
On to `CC[C@@]1(O)C(=O)OCc2c1cc1n(c2=O)Cc2cc3c(NC(=O)CN)cccc3nc2-1`, for which the TGI with A549 NSCLC is greater than 48.5 µM; in the assay on MOLT-4 leukemia, 0.161 µM; with M14 melanoma, 2.8 µM; in the assay with TK-10 renal, greater than 81.7 µM; in the assay with SNB-19 CNS, greater than 100 µM; with U251 CNS, 5.16 µM. Besides, the TGI with UACC-62 melanoma is 7.42 µM; with COLO 205 colon, greater than 51.3 µM; in the assay on OVCAR-8 ovarian, greater than 43.8 µM; in the assay on MDA-MB-231 breast it was greater than 73 µM.
In the case of `COc1ccc(-c2ccccc2)cc1-c1c(Nc2cc(Cl)cc(Cl)c2O)c(=O)c1=O`, the GI50 with A549 NSCLC is 1.65 µM; in the assay on MOLT-4 leukemia, 1.78 µM; with M14 melanoma, 1.72 µM; in the assay with TK-10 renal, 2.84 µM; with SNB-19 CNS it was 1.84 µM; in the assay on U251 CNS, 1.63 µM. Also, the GI50 in the assay on UACC-62 melanoma is 1.29 µM; in the assay on COLO 205 colon, 1.9 µM; with OVCAR-8 ovarian it was 1.84 µM; in the assay on MDA-MB-231 breast, 1.2 µM. Further, the TGI in the assay with A549 NSCLC, with MOLT-4 leukemia, in the assay with M14 melanoma, with TK-10 renal, in the assay with SNB-19 CNS and in the assay with U251 CNS was greater than 50 µM each time. Moreover, the TGI in the assay with UACC-62 melanoma was greater than 50 µM; in the assay with COLO 205 colon it was 44.8 µM; in the assay with OVCAR-8 ovarian, greater than 50 µM; in the assay with MDA-MB-231 breast, 3.17 µM.
Turning to `O=[N+]([O-])c1cccc(-c2cc(-c3cc(Br)ccc3O)[nH]n2)c1`, the GI50 in the assay with A549 NSCLC was 2.42 µM; with MOLT-4 leukemia, 1.72 µM; with M14 melanoma it was 2.08 µM; in the assay with TK-10 renal, 2.26 µM; in the assay with SNB-19 CNS, 3.26 µM; in the assay with U251 CNS, 3.24 µM. The GI50 in the assay with UACC-62 melanoma was 2.63 µM; with COLO 205 colon, 2.23 µM; with OVCAR-8 ovarian, 2.89 µM; with MDA-MB-231 breast, 2.49 µM. Besides, the TGI with A549 NSCLC was found to be 6.68 µM; in the assay with MOLT-4 leukemia, 4.68 µM; in the assay on M14 melanoma, 5.03 µM; in the assay on TK-10 renal, 6.71 µM; in the assay with SNB-19 CNS it was 12.3 µM; in the assay on U251 CNS it was 11.9 µM. For the same compound, the TGI with UACC-62 melanoma came to 11.7 µM; in the assay with COLO 205 colon, 5.16 µM; in the assay on OVCAR-8 ovarian, 10.5 µM; in the assay with MDA-MB-231 breast it was 9.87 µM.
Turning to `CCC(=O)c1ccc2c(c1)N(CCCN1CCN(CCO)CC1)c1ccccc1S2`, the GI50 was 16.2 µM in the assay with A549 NSCLC; 11 µM with MOLT-4 leukemia; 2.22 µM with M14 melanoma; 13.9 µM in the assay with TK-10 renal; 18.5 µM in the assay on SNB-19 CNS; 13.2 µM in the assay on U251 CNS. The GI50 with UACC-62 melanoma is 2.2 µM; with COLO 205 colon, 12.1 µM; in the assay on OVCAR-8 ovarian, 16.9 µM; with MDA-MB-231 breast it was 13.1 µM. Besides, the TGI in the assay on A549 NSCLC is 32.1 µM; in the assay with MOLT-4 leukemia, 26.8 µM; with M14 melanoma, 4.63 µM; in the assay with TK-10 renal, 27.5 µM; in the assay on SNB-19 CNS, 36.1 µM; in the assay with U251 CNS it was 27.9 µM. For the same compound, the TGI in the assay with UACC-62 melanoma is 4.73 µM; in the assay with COLO 205 colon, 26.5 µM; in the assay on OVCAR-8 ovarian, 32.7 µM; in the assay on MDA-MB-231 breast, 27.4 µM.
With `CCCCCCN1CCN(Cc2ccc(N(CC)CC)cc2)C(=O)C1=O`, the GI50 in the assay on A549 NSCLC was 4.29 µM; in the assay on MOLT-4 leukemia, 3.42 µM; in the assay with M14 melanoma it was 2.3 µM; in the assay with TK-10 renal it was 10.3 µM; in the assay on SNB-19 CNS it was 4.08 µM; in the assay on U251 CNS it was 3.99 µM. In addition, the GI50 in the assay on UACC-62 melanoma was 3.54 µM; with COLO 205 colon it was 0.759 µM; in the assay with OVCAR-8 ovarian, 5.42 µM; with MDA-MB-231 breast, 4.97 µM. Moreover, the TGI in the assay on A549 NSCLC was greater than 100 µM; in the assay on MOLT-4 leukemia, 32.8 µM; in the assay on M14 melanoma, 9.08 µM; in the assay on TK-10 renal, 77.5 µM; in the assay on SNB-19 CNS, greater than 100 µM; in the assay on U251 CNS it was 62.3 µM. The TGI in the assay with UACC-62 melanoma was greater than 100 µM; in the assay on COLO 205 colon it was 10.1 µM; in the assay on OVCAR-8 ovarian it was greater than 100 µM; with MDA-MB-231 breast, greater than 100 µM.
In the case of `NC(=O)NCCSC1CCCCC1O` (stereo not drawn), the TGI was greater than 100 µM in the assay on A549 NSCLC; 78 µM with MOLT-4 leukemia; greater than 100 µM in the assay with M14 melanoma; greater than 100 µM in the assay with TK-10 renal; greater than 100 µM in the assay with SNB-19 CNS; greater than 100 µM with U251 CNS. In addition, the TGI in the assay on UACC-62 melanoma, in the assay on COLO 205 colon, in the assay on OVCAR-8 ovarian and in the assay with MDA-MB-231 breast was greater than 100 µM each time.
Turning to `C=C1C(=O)O[C@H]2C[C@@H]1CCC1(C)OC1CC/C(C)=C/CC[C@H]2C` (stereo partly drawn), the GI50 in the assay on A549 NSCLC is 19.7 µM; in the assay on MOLT-4 leukemia, 18 µM; with M14 melanoma, 18 µM; with TK-10 renal it was 17.6 µM; in the assay with SNB-19 CNS, 16 µM; with U251 CNS, 17.7 µM. The GI50 was 17.5 µM in the assay with UACC-62 melanoma, 15.6 µM with COLO 205 colon, 26.8 µM in the assay on OVCAR-8 ovarian and 17.7 µM with MDA-MB-231 breast. For the same compound, the TGI in the assay on A549 NSCLC turned out to be 39 µM; in the assay on MOLT-4 leukemia it was 33.5 µM; in the assay on M14 melanoma it was 31.9 µM; in the assay on TK-10 renal, 31.8 µM; in the assay with SNB-19 CNS it was 32.9 µM; in the assay with U251 CNS it was 31.5 µM. In addition, the TGI amounted to 31.3 µM in the assay with UACC-62 melanoma, 36.2 µM in the assay on COLO 205 colon, 72.2 µM in the assay on OVCAR-8 ovarian and 32.2 µM with MDA-MB-231 breast.
Turning to `CC1(C)N[P+]2(Nc3ccccc3O2)OC1=O` (stereo not drawn), the TGI in the assay on A549 NSCLC, in the assay with MOLT-4 leukemia, in the assay with M14 melanoma, in the assay with TK-10 renal, with SNB-19 CNS and with U251 CNS was greater than 100 µM in each case. The TGI in the assay with UACC-62 melanoma is 64 µM; in the assay on COLO 205 colon, 49.9 µM; in the assay with OVCAR-8 ovarian, greater than 100 µM; in the assay with MDA-MB-231 breast it was greater than 100 µM.
As to `N=C(N)c1ccc(-c2ccc(-c3ccc(F)cc3)o2)o1`, the GI50 is 1.65 µM with A549 NSCLC; 1.6 µM in the assay with MOLT-4 leukemia; 1.23 µM with M14 melanoma; 1.55 µM with TK-10 renal; 1.73 µM in the assay with SNB-19 CNS; 1.6 µM in the assay with U251 CNS. Also, the GI50 in the assay with UACC-62 melanoma is 1.74 µM; with COLO 205 colon, 1.6 µM; with MDA-MB-231 breast, 1.57 µM. Besides, the TGI came out at 3.3 µM in the assay with A549 NSCLC; 4.68 µM with MOLT-4 leukemia; 2.79 µM with M14 melanoma; 2.92 µM with TK-10 renal; 4.05 µM in the assay with SNB-19 CNS; 3.08 µM in the assay with U251 CNS. The TGI with UACC-62 melanoma is 3.27 µM; in the assay on COLO 205 colon it was 3.15 µM; in the assay with MDA-MB-231 breast, 3.33 µM.
